Data published in paper PMC9936582, “Sulfamate Acetamides as Self-Immolative Electrophiles for Covalent Ligand-Directed Release Chemistry” (Journal of the American Chemical Society, 2023).
Values belong to the compound of their own block, whether it stands above or below them.

Tests used:
Mino cells = test: In situ proteomic labeling with alkyne probes, in-gel fluorescence; type: cell-based; conditions: 2 h, TAMRA-azide CuAAC
Source text: To assess proteomic selectivity in cells, we have synthesized two sulfamate acetamides (2a and 2b) and a chloroacetamide (2c) with an alkyne functionality (Figure 2A and Figure S8). We treated Mino cells for two hours with either DMSO or 2a–2c. We then lysed the cells, labeled the alkynes via copper-catalyzed “click chemistry” (CuAAC) with TAMRA-azide, and imaged the adducts via in-gel fluorescence (Figure 2C). Similar to their reactivity pattern in the GSH reactivity assay, these compounds labeled various amounts of proteins under cellular conditions.
Mino cells were cultured in RPMI-medium supplemented with 15% FBS and 1% p/s at 37 °C and 5% CO2. […] The cells were lysed with RIPA buffer (Sigma, R0278), and protein concentration was determined using BCA protein assay (Thermo Fisher Scientific, 23225). Lysates were then diluted to 2 mg/mL in PBS. Lysates were clicked to TAMRA-azide (Lumiprobe). “Click” reaction was performed using a final concentration of 40 μM TAMRA-azide, 3 mM CuSO4, 3 mM Tris(3-hydroxypropyltriazolylmethyl)amine (THPTA, Sigma), and 3.7 mM Sodium L-ascorbate (Sigma) in a final volume of 60 μL. The samples were subjected to precipitation.
Precipitation: 1× chloroform, 4× methanol, and 3× water were added to the samples and vortexed thoroughly. The samples were spun down for 10 min at 4 °C, 21,000g. […]

BTK [1] = molecular target: T1, BTK (Homo sapiens, UniProt Q06187); test: Cellular labeling profile of CoLDR probe in Mino cells, in-gel fluorescence; type: cell-based; design: endogenous in cells; host or cells: Mino cells; conditions: 2 h, 100 nM
T1 sequence (Q06187 whole entry): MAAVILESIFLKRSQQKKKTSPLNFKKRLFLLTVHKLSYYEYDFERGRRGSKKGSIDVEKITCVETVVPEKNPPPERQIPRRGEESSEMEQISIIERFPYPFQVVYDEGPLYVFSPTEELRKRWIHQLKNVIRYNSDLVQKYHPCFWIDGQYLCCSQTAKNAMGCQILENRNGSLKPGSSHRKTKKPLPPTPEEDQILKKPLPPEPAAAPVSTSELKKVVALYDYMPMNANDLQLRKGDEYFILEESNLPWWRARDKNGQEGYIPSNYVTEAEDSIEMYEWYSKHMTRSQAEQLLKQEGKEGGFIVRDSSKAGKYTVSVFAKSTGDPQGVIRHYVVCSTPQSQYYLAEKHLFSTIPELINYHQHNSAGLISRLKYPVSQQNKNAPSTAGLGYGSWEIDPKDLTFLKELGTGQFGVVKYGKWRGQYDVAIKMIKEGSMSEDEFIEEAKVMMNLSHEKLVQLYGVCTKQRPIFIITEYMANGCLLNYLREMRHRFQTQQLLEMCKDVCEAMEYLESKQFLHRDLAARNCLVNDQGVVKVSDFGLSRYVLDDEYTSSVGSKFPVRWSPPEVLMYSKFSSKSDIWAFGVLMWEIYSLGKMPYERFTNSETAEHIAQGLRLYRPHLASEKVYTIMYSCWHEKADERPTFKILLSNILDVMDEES

[2] = GSH consumption assay (LC/MS); conditions: 100 μM compound, 5 mM GSH, same conditions as ibrutinib
BTK [3] = molecular target: T1, BTK; test: BTK activity (autophosphorylation) in Mino cells, Western blot; type: cell-based; design: endogenous in cells; host or cells: Mino cells; conditions: anti-human IgM activation
Protocol: To assess the cellular efficacy of these compounds, we followed the inhibition of BTK autophosphorylation in Mino cells. After 1 h of pre-incubation with the inhibitors and B-cell activation with an anti-IgM antibody, BTK autophosphorylation was followed by Western blot.
The cell pellets were subjected to immunoblotting, and Western blots were performed for p-BTK, BTK, and β-actin.
Cell pellets were washed with ice-cold PBS and lysed using RIPA buffer (Sigma, R0278). […] Samples containing 50 μg total protein were prepared with 4× LDS sample buffer (NuPAGE, Thermo Scientific, NP0007) and 20 mM DTT, which were then resolved on a 4–20% Bis–Tris gel (GeneScript SurePAGE, M00657). […] An EZ-ECL Kit (Biological Industries, 20-500-1000) was used to detect HRP activity.

Pin1 [4] = molecular target: T2, Pin1 (Homo sapiens, UniProt Q13526); test: Intact protein MS labeling of Pin1; type: binding; conditions: 2 μM Pin1, 2 μM compound, pH 7.5, 1 h, 25 °C
T2 construct: The catalytic domain of Pin1 (2 μM) in […] and 75 mM NaCl (pH 7.5) was incubated; made in house
T2 sequence (Q13526 52-163 limits assumed): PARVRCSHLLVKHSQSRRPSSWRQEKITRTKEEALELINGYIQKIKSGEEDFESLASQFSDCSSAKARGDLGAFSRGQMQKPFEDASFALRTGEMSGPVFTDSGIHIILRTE
Protocol: Initially, we incubated these compounds (4a–4g; 2 μM) with Pin1 (2 μM; 50 mM Tris buffer; pH 7.5, 1 h; 25 °C) to check covalent labeling by intact protein MS (Figure 5B,C; Figure S23). Under these conditions, sulfopin labeled 59% as previously reported;[38] the sulfonate (4a) labeled 18%, whereas alkyl sulfamates (4b and 4c) labeled 16 and 56%, respectively. […] We have previously reported that replacing the tert-butyl group in sulfopin by a cyclohexyl increases the labeling along with intrinsic thiol reactivity. Compound 4g contains a cyclohexyl group instead of the tert-butyl and a phenyl sulfamate electrophile and was able to label >95% of Pin1 under these conditions.
Pin1 was expressed and purified as previously reported.[38] The catalytic domain of Pin1 (2 μM) in […] and 75 mM NaCl (pH 7.5) was incubated with 2 μM sulfopin sulfamate (4a–4g) for 1 h at 25 °C.
The reaction mixtures, at room temperature for various times, were injected into the LC/MS. For data analysis, the raw spectra were deconvoluted using a 20,000:40,000 Da (For Pin1, 10,000:30,000) window and 1 Da resolution. The labeling percentage for a compound was determined as the labeling of a specific compound (alone or together with other compounds) divided by the overall detected protein species.

[5] = DTNB thiol reactivity assay; type: physicochemical
Protocol: The compound 5,5′-dithio-bis(2-nitrobenzoic acid) (DTNB; 50 μM) was incubated with 200 μM tris(2-carboxyethyl)phosphine (TCEP) in 20 mM sodium phosphate buffer (pH 7.4) and 150 mM NaCl for 5 min at room temperature to obtain TNB^–2. […] UV absorbance was acquired every 15 min for 7 h. The assay was performed in a 384-well plate using a Tecan Spark 10 M plate reader. […] Compounds were measured in triplicate. The data were fitted to a second-order reaction equation such that the rate constant (K) is the slope of ln([A][B0]/[B][A0]), where [A0] and [B0] are the initial concentrations of the compound (200 μM) and TNB^–2 (100 μM), respectively, and [A] and [B] are the remaining concentrations as a function of time as deduced from spectrometric measurements. Linear regression using Prism was performed to fit the rate against the first 7 h of measurements.

Pin1 [6] = molecular target: T2, Pin1; test: Determination of KI and Kinact for Pin1; type: binding; conditions: Pin1 0.5 μM, 100 mM Tris buffer pH 7.4, 14 °C
Protocol: intensities. Ratios that were above 20 or infinite (due to the sum being zero for the low intensities) were defined as 20. Intensities measured for different peptides containing the same modified cysteine were […]
Pin 1 (500 nM) was incubated at various concentrations of Sulfopin (0.5, 1, 2, 5, 20, 50, 100, 150, […]
in 100 mM Tris buffer at pH 7.4. After the addition, the samples are put at 14 °C. The reaction mixtures, at various time points (indicated in the graph), were injected into the LC/MS. For data analysis, the raw spectra were deconvoluted using a 10000:30000 Da window and 1 Da resolution. The labeling percentage for a compound was determined as the labeling of a specific compound (alone or together with other compounds) divided by the overall detected protein species. The % of unlabelled Pin 1 was plotted against time and fitted to the pseudo-first-order reaction kinetics formula (Figure S24A & C). The obtained rate constants were fitted to the Michaelis-Menten-type saturation curve (Fig. S24B & D) to extrapolate kinact and KI.

PATU-8988T cells = test: Competitive isoDTB-ABPP in PATU-8988T cells; type: cell-based, human; design: dose or concentration left out as unconfirmed; conditions: 4 h
Protocol: Using our previously reported sulfopin-DTB probe[38] (Figure S29A), we evaluated the cellular engagement of these compounds with Pin1 in OCI-AML2 cells. Compounds 4c, 4d, 4e, and 4g and sulfopin were incubated in OCI-AML2 cells (0.5 and 2.5 μM) followed by lysis and treatment with sulfopin-DTB (1 μM). The lysates were pulled down using streptavidin beads, and Pin1 was imaged by Western blot. […] At 0.5 μM, all of these compounds show only ∼30% Pin1 engagement. […] Both sulfopin and 4d labeled only six peptides with an H/L ratio of >2. […]
The preparation of IsoDTB-ABPP samples was performed essentially as described in Zanon et al.2.
Experiments were conducted in quadruplicates. PATU cells were incubated for 2 h with 5 µM compounds Sulfopin or 3g (or with DMSO), and collected by centrifuge at 300 g for 5 min followed by ice cold PBS wash. For lysis, samples containing 10 million cells were dispersed in 0.5 mL of RIPA buffer (Sigma, R0278), incubated with occasional vortexing for 30 min on ice, followed by centrifugation at 21,000 g for 15 min. […]
sample was diluted to 1.7 mg/mL using PBS. To each sample, 5 µL of 10 mM IA-alkyne was added, followed by 1 h incubation at room temperature in the dark. 10 µL of 5 mM DesThioTag was added (Light for the compound treated samples, heavy for the DMSO-treated samples), followed by 18 µL of CuSO4:THPTA (100 mM), and the click reaction was initiated by addition of 15 µL of 150 mM sodium ascorbate (freshly dissolved in water). The samples were incubated on a rotary shaker for 1 h at room temperature. The compound-treated and DMSO-treated samples were mixed with 4 mL methanol, 1 mL chloroform and 2 mL water on ice, vortexed and centriduged at 3200 g for 10 min at 4°C. The top layer was aspirated, and 3 mL methanol was added, followed by centrifugation and aspiration of the supernatant. The pellets were air dried and stored at -80°C until the following treatment. The pellets were resuspended in 0.3 mL of 8 M urea freshly dissolved in PBS using probe sonication (8 sec total at 40% amplitude, 1 sec on/2 sec off, at room temperature). Following the resuspension, the samples were diluted with 1 mL of PBS. Then each sample was mixed with 1.3 mL of slurry containing 110 µL of streptavidin agarose beads (Thermo Streptavidin Agarose cat # 20349), prewashed, and dispersed in 0.2% IGEPAL. The samples were incubated with rotation for 3 h at room temperature. The beads were pelleted by centrifugation at 2000 g for 2 min, transferred to spin columns, and washed 3 times with 0.1% IGEPAL/PBS, 3 times PBS, and 3 times water.
The beads were then suspended in 8 M Urea/50 mM ammonium bicarbonate, and 15 µL of 31 mg/mL DTT were added, followed by incubation at 37°C for 45 min. […]

[7] = Metabolic stability of sulfopin analogues in liver microsomes; type: in vitro ADME
Protocol: Next, we examined the buffer stability of the sulfopin sulfamate acetamides in PBS buffer (pH 8; 37 °C). Similar to the model compounds, the chloroacetamide (sulfopin) and sulfonate (4a) warheads show 30 and 15% hydrolysis after 2 days, respectively (Figure S26).
Figure S27: Sulfopin sulfamates show high metabolic stability: Compounds (Sulfopin, 4d, and 4g) were incubated
in liver microsomes and injected to LC/MS/MS at indicated time points. The peak intensities of the compounds were […]

Buffer stability assay = type: physicochemical
[8] = Q13526_C113 (Pin1 Cys113), text: PATU-8988T cells

Structure (SMILES): C#Cc1ccc(NC(=O)CCl)cc1 [2c]
proteins labeled under cellular conditions (Mino cells): labeled the highest number of proteins

Structure (SMILES): C#CCOS(=O)(=O)N1CCC[C@@H](n2nc(-c3ccc(Oc4ccccc4)cc3)c3c(N)ncnc32)C1 [3j]
apparent off-targets that ibrutinib did not compete (BTK [1]): three | BTK labeling in cells (in words) (BTK [1]; TAMRA-azide): showed BTK labeling | reaction with GSH (in words) [2]: did not undergo any reaction with GSH | BTK autophosphorylation / activity after treatment (in words) (BTK [3]): BTK remained active

labeling of Pin1 (Pin1 [4]): > 90% | thiol reactivity compared to sulfopin [5]: lower thiol reactivity than sulfopin | Ki (Pin1 [6]): 43.6 µM | metabolic stability (in words) [7]: good metabolic stability
Structure (SMILES): CC(C)(C)CN(C(=O)COS(=O)(=O)Nc1ccccc1)C1CCS(=O)(=O)C1 (stereo not drawn) [4d]
isoDTB-ABPP H/L Ratio (PATU-8988T cells; [8]): 3.057 | isoDTB-ABPP H/L Ratio (PATU-8988T cells; Q15149_C4494, text: PATU-8988T cells): 2.693

labeling of Pin1 (Pin1 [4]): 59% | Ki (Pin1 [6]): 217 µM | metabolic stability (in words) [7]: good metabolic stability | hydrolysis (buffer stability, sulfopin analogues) (Buffer stability assay; 200 μM, PBS buffer pH 8, 37 °C for four days): 30% | hydrolysis (buffer stability, sulfopin analogues) (Buffer stability assay; PBS buffer pH 8, 37 °C, after 2 days): 30%
Structure (SMILES): CC(C)(C)CN(C(=O)CCl)C1CCS(=O)(=O)C1 (stereo not drawn) [sulfopin, reference compound]
isoDTB-ABPP H/L Ratio (PATU-8988T cells; P18031_C32, text: PATU-8988T cells): 2.941 | isoDTB-ABPP H/L Ratio (PATU-8988T cells; [8]): 11.8257
